Measurements from ChEMBL document CHEMBL1201862, “PubChem BioAssay data set” (2004).
Each block holds one compound with its values, some of them ahead of it. The source made the active and inactive calls.

How the values were obtained:
[1] = target: T1, Heat shock factor protein 1 (Mus musculus, UniProt P38532); assay: inhibition of MG132-induced HSE-luciferase signal, confirmation, cell-based, NIH3T3, luminescence, dose retest (AID 2382); format: functional;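 note: NIH3T3 fibroblasts with HSF1-driven luciferase reporter stressed by proteasome inhibitor MG132; luminescence from HSF1-driven luciferase expression after 8 hours of MG132 stress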
T1 sequence (P38532 whole entry): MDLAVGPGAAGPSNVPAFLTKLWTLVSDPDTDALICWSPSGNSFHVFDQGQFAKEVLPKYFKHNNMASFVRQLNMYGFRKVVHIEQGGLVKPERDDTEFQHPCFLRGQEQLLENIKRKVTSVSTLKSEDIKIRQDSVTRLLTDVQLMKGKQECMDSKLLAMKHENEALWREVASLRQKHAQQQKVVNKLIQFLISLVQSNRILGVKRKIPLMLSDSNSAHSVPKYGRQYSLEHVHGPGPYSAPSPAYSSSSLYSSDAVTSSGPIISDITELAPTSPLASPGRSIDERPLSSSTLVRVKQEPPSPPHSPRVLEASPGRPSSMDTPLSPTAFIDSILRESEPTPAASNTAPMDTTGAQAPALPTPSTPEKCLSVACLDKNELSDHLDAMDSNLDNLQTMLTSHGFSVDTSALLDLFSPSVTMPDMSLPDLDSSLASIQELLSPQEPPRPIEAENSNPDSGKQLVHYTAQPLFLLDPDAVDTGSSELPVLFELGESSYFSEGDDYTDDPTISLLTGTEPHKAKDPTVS

Cytochrome P450 3A4 [2] = target: T2, Cytochrome P450 3A4 (Homo sapiens, UniProt P08684);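 note: CYP3A4 tested as one member of a cytochrome P450 panel screen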
T2 sequence (P08684 whole entry): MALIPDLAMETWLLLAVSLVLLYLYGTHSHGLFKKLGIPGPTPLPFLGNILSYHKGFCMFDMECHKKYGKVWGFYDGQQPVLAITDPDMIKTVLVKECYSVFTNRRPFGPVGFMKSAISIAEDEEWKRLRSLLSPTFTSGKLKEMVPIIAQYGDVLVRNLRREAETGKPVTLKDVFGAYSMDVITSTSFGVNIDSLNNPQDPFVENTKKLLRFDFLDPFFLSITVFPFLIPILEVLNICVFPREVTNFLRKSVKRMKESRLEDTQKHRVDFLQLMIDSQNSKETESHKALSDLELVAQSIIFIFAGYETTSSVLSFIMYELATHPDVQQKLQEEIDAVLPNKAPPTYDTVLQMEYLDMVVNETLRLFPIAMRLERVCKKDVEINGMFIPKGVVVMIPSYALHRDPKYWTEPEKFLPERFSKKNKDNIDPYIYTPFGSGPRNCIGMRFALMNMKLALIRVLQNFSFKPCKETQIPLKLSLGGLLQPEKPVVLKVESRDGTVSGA

[3] = target: Voltage-dependent T-type calcium channel subunit alpha-1H (Homo sapiens, UniProt O95180); format: functional;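 note: channel activity triggered by adding a high calcium stimulation buffer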
Voltage-dependent T-type calcium channel subunit alpha-1H, sequence (O95180 whole entry): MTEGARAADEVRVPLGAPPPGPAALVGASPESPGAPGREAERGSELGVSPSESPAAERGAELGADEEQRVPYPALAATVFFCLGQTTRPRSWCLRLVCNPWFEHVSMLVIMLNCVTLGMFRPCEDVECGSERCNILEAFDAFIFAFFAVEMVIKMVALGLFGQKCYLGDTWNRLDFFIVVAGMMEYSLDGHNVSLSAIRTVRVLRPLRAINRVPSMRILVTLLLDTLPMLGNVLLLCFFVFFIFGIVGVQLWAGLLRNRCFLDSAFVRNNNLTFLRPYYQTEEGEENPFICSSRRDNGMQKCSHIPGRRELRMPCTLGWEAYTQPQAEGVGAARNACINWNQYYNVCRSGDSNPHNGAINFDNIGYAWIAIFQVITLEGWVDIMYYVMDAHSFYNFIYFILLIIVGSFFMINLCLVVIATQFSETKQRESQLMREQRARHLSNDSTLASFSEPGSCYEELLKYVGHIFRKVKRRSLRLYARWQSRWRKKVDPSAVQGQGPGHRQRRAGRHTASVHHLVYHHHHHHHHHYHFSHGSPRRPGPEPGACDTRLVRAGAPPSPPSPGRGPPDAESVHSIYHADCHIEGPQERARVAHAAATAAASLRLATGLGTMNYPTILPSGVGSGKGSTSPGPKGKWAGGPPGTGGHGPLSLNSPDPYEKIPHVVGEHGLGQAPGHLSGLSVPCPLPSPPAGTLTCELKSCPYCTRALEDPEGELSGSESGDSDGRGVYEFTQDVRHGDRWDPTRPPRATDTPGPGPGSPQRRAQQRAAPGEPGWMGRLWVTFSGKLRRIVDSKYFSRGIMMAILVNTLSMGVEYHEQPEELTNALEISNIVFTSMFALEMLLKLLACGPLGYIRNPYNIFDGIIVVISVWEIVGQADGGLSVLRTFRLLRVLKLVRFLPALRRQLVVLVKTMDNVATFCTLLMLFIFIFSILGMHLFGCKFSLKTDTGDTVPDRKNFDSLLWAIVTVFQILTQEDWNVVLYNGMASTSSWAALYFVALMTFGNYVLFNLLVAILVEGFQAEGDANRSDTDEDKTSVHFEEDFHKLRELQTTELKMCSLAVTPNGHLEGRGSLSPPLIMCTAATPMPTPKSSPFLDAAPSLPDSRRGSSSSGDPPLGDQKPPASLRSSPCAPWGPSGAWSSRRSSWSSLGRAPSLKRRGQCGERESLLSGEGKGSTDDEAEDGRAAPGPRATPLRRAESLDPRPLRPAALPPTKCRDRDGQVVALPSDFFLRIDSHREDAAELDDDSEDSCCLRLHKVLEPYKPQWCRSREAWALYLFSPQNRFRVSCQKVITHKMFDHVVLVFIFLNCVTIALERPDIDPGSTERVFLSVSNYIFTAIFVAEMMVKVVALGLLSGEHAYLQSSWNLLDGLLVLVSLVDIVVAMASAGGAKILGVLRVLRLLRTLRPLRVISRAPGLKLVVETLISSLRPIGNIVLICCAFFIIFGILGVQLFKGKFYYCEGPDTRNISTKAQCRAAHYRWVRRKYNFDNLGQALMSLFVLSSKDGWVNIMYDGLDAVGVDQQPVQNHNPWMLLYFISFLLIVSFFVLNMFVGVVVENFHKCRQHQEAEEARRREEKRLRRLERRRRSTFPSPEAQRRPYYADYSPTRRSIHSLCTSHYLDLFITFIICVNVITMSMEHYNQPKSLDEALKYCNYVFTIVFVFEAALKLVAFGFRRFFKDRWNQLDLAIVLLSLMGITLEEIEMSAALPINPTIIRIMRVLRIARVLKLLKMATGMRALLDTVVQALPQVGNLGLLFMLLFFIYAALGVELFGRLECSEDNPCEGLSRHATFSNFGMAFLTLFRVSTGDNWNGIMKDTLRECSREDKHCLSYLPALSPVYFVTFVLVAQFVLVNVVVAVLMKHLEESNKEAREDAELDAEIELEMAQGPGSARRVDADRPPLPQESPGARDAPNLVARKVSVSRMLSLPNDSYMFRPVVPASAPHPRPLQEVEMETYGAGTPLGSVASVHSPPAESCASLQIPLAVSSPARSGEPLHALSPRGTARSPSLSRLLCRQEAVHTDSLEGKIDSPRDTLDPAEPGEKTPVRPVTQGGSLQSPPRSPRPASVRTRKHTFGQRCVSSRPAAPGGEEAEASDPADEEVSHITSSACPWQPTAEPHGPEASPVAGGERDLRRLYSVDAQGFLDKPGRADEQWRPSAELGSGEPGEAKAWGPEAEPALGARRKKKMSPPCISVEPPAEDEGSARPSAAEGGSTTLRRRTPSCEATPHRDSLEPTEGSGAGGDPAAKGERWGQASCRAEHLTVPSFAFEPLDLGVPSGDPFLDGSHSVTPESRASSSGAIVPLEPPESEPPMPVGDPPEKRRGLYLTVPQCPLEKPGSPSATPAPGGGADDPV

Cytochrome P450 2D6 = Cytochrome P450 2D6 (Homo sapiens, UniProt P10635);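 note: CYP2D6 member of a cytochrome P450 panel assay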
Cytochrome P450 2D6, sequence (P10635 whole entry): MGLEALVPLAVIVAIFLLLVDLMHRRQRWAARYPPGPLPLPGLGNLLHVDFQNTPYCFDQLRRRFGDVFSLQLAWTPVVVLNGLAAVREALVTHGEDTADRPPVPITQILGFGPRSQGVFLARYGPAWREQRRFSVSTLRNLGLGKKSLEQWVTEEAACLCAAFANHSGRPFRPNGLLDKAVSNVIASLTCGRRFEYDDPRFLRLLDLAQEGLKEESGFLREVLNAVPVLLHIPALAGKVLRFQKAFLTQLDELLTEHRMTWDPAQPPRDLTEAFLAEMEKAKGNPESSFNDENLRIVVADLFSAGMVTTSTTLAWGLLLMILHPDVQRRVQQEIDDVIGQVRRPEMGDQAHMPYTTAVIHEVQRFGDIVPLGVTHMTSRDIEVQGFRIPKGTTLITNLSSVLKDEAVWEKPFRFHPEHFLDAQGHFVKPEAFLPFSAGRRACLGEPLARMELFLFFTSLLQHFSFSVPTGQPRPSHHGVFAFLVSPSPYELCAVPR

[4] = insulin promoter down-regulators in MIN6 cells, imaging, high-content screening, mouse beta cells (AID 1628); format: functional
[5] = target: Photoreceptor-specific nuclear receptor (Homo sapiens, UniProt Q9Y5X4); format: functional, cell-based;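 note: CHO-S cells with Gal4-NCOR and VP16-NR2E3 two-hybrid luciferase reporter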
Photoreceptor-specific nuclear receptor, sequence (Q9Y5X4 whole entry, the tested form may be a part): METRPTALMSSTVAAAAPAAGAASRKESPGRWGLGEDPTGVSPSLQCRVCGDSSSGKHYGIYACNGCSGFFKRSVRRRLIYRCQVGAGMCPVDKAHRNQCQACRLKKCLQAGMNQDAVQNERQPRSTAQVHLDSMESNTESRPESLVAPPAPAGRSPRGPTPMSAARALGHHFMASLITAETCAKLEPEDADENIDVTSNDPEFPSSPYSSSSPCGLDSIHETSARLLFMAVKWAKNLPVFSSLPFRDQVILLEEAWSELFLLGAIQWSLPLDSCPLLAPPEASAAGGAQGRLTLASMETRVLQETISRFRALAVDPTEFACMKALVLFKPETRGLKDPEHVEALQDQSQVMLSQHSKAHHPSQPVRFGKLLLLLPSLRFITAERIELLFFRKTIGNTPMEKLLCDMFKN

[6] = cytotoxicity in MIN6 insulinoma cells, dose response, cytotoxicity control, cell-based, mouse insulinoma (AID 2122); format: functional;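 note: confirmatory high-throughput counterscreen run to flag cytotoxic compounds; mouse MIN-6 beta cells carrying an insulin promoter eGFP reporter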
Cytochrome P450 2C19 = Cytochrome P450 2C19 (Homo sapiens, UniProt P33261); assay: Cytochrome panel assay with activity outcomes. Panel member name: p450-cyp2c19 Compounds with AC50 equal or less than 10 uM are considered active; format: functional
Cytochrome P450 2C19, sequence (P33261 whole entry): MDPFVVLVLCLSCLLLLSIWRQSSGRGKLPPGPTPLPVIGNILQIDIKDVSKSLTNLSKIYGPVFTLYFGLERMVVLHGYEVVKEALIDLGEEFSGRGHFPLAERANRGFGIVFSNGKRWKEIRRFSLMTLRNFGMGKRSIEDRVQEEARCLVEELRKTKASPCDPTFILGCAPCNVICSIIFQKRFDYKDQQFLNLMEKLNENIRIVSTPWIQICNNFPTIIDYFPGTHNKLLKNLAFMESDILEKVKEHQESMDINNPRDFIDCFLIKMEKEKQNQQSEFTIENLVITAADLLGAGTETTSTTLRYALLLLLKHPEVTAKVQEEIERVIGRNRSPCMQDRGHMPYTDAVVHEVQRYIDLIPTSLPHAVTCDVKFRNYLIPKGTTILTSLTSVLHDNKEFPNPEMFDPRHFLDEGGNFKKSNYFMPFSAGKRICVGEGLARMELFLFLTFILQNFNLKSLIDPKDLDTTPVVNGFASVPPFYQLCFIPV

Cytochrome P450 2C9 = Cytochrome P450 2C9 (Homo sapiens, UniProt P11712)
Cytochrome P450 2C9, sequence (P11712 whole entry): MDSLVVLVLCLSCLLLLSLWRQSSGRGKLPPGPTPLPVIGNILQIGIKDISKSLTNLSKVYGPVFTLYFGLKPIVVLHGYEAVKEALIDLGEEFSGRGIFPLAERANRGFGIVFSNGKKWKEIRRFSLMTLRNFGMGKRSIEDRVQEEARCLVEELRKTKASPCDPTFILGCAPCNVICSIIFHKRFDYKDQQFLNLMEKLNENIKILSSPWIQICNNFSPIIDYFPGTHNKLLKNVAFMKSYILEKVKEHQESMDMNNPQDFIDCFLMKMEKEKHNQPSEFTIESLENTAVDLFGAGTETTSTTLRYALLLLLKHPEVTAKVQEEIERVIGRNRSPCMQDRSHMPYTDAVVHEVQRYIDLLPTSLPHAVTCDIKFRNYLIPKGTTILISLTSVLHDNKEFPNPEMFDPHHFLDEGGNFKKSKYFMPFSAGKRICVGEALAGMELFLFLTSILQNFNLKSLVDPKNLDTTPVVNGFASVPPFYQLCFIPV

Cytochrome P450 3A4 [7] = target: T2, Cytochrome P450 3A4; remark: listed apart in the source
INS1 = assay: beta cell apoptosis inhibitors, cytokine rescue, dose response, luminescence, retest (AID 449756); format: functional, cell-based; details: Rattus norvegicus;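 note: cell death triggered by IL-1 beta plus TNF-alpha plus IFN-gamma mixture; protective hits raise ATP signal compared with cytokine alone wells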
[8] = target: T3, Lysine-specific demethylase 4A (Homo sapiens, UniProt O75164); assay: JMJD2A histone demethylase inhibitors, dose response, selectivity assay for GASC-1 inhibitor project, biochemical, DELFIA europium, cherry-picked samples (AID 488840)
T3 sequence (O75164 whole entry): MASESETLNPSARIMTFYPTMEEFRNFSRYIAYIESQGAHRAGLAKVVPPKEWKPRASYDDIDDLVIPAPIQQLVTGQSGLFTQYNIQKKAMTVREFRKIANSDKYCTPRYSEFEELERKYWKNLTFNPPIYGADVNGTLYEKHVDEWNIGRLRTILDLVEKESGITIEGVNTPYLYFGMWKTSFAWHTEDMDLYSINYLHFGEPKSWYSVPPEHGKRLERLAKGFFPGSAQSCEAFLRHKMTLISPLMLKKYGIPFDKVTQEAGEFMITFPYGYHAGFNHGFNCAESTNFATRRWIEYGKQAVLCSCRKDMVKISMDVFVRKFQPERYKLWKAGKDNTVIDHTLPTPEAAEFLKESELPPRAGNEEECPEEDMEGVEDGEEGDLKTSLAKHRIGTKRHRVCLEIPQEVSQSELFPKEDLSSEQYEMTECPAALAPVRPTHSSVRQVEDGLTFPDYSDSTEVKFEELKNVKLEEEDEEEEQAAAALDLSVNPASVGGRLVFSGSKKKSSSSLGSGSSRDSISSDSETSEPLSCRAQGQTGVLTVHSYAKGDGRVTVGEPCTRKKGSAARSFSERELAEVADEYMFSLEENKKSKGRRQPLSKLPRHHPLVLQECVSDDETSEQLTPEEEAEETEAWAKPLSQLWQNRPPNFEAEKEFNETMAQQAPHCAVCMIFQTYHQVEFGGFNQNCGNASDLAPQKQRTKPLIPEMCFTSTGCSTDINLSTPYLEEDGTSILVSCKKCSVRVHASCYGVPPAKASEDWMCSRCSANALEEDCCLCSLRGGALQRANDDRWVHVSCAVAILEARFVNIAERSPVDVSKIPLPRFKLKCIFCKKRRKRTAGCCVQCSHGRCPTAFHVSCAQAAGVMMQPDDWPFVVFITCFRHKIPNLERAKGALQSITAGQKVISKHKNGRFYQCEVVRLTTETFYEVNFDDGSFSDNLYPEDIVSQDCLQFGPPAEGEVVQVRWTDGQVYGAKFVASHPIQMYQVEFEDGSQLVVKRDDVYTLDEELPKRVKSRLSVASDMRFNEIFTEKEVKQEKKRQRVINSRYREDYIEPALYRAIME

[9] = target: T4, Tyrosine-protein phosphatase non-receptor type 22 (Homo sapiens, UniProt Q9Y2R2); assay: LYP (PTPN22) phosphatase inhibitor potency, SAR follow-up, biochemical, pCAP fluorogenic substrate, fluorescence, set 3 (AID 449727); format: functional
T4 sequence (Q9Y2R2 whole entry): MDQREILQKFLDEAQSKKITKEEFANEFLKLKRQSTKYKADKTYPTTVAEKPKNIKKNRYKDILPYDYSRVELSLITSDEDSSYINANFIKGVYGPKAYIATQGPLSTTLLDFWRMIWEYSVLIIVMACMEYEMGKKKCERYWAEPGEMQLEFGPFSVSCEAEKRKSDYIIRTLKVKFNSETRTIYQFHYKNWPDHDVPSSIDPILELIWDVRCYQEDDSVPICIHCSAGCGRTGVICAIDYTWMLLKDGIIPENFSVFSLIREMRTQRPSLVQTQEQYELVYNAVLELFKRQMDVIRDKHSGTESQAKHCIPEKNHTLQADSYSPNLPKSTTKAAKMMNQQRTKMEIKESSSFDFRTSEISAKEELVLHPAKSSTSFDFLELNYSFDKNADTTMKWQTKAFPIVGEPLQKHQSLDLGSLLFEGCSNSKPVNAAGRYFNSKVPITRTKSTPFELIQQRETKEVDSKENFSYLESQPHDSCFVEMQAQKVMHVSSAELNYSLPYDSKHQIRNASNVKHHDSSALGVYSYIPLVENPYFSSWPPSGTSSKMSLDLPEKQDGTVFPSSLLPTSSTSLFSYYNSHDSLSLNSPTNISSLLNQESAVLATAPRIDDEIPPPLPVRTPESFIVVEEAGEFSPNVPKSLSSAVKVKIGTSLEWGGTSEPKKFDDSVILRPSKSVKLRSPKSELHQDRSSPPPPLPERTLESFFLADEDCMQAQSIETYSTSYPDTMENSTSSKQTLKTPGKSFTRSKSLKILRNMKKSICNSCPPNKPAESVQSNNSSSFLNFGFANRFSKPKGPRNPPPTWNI

[10] = target: T4, Tyrosine-protein phosphatase non-receptor type 22; assay: SAR LYP1 Fluorescent Assay using pCAP substrate for In Vitro dose response studies - Set 2. [Related pubchem assays (depositor defined):AID1779, AID1784, AID2135, AID449727]; format: functional
[11] = target: T5, Tyrosine-protein phosphatase non-receptor type 7 (Homo sapiens, UniProt P35236); assay: HePTP (PTPN7) phosphatase inhibitor potency, SAR follow-up, biochemical, set 2 (AID 449736); format: functional
T5 sequence (P35236 whole entry): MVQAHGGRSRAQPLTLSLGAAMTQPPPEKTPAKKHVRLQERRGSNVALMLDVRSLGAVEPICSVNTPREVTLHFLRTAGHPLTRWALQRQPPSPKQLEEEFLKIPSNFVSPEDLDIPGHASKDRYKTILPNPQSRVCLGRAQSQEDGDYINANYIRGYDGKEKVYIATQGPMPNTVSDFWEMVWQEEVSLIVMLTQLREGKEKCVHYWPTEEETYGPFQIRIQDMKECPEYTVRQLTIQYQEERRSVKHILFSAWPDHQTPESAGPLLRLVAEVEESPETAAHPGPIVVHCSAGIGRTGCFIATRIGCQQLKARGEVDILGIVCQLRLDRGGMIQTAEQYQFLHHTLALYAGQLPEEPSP

[12] = target: T6, Tyrosine-protein phosphatase non-receptor type 12 (Homo sapiens, UniProt Q05209); assay: SAR Selectivity Analysis of small molecule inhibitors of PEST using pCAP in a fluorescence assay. [Related pubchem assays (depositor defined):AID1779, AID1784, AID2135]; format: functional
T6 sequence (Q05209 whole entry): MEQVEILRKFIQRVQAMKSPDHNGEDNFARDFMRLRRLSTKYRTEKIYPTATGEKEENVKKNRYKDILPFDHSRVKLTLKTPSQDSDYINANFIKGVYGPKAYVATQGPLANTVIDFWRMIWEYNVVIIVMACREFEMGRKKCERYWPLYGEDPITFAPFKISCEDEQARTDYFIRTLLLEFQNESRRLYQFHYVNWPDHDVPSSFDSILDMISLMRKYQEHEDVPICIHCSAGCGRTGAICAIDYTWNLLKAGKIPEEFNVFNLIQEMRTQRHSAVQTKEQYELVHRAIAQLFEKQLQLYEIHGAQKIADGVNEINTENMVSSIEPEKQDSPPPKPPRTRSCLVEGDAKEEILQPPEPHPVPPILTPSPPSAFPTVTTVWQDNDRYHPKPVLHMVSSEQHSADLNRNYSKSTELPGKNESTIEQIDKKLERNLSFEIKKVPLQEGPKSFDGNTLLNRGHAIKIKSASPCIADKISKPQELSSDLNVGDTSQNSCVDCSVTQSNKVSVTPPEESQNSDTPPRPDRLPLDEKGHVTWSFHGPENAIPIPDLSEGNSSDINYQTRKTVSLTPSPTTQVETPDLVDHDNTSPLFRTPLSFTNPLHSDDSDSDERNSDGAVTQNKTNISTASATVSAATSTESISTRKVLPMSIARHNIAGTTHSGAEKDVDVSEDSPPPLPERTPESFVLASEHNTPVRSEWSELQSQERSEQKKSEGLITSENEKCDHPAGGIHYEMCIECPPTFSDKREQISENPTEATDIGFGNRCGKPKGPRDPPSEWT

[13] = target: T4, Tyrosine-protein phosphatase non-receptor type 22; assay: SAR LYP1 Fluorescent Assay using OMFP substrate for In Vitro dose response studies - Set 3. [Related pubchem assays (depositor defined):AID1779, AID1784, AID2140, AID2686]; format: functional
[14] = target: T4, Tyrosine-protein phosphatase non-receptor type 22; assay: SAR LYP1 Fluorescent Assay using OMFP substrate for In Vitro dose response studies - Set 2. [Related pubchem assays (depositor defined):AID1779, AID1784, AID2140, AID449726, AID488869]; format: functional

EC50 [1]: > 195 µM (not active)
AC50 (Cytochrome P450 3A4 [2]): inconclusive
EC50 [3]: 19.2 µM (active)
AC50 (Cytochrome P450 2D6): inconclusive
Structure (SMILES): O=S(=O)(Cc1cc(Oc2ccccc2)nc(-c2ccccc2)n1)c1ccccc1

Structure (SMILES): Cc1nc2ncnn2c(N2CCN(c3cccc(C(F)(F)F)c3)CC2)c1C
IC50 [4]: 2.94 µM (active)
IC50 [5]: 838 nM (active)
IC50 [6]: 3.77 µM (active)

AC50 (Cytochrome P450 2C19): inconclusive
AC50 (Cytochrome P450 2C9): 3.16 µM (inconclusive)
AC50 (Cytochrome P450 3A4 [7]): 3.98 µM (inconclusive)
AC50 (Cytochrome P450 2D6): inconclusive
Structure (SMILES): CC1(C)[C@@H]2CC[C@@](C)(C2)[C@H]1OC(=O)c1ccccc1C(=O)O

Structure (SMILES): O=C(COc1ccc2ccccc2c1)N1CCN(Cc2c[nH]c3ccccc23)CC1
IC50 [4]: 4.5 µM (active)
AC50 (INS1): 2.58 µM (active)
IC50 [6]: 3.26 µM (active)

AC50 [8]: 644 nM (active)
Structure (SMILES): COc1cc2c(cc1OC)C1=C(C#N)COCN1CC2

IC50 [9]: > 100 µM (inactive)
IC50 [10]: > 100 µM (inactive)
IC50 [11]: > 100 µM (inactive)
IC50 [12]: > 100 µM (inactive)
IC50 [13]: > 100 µM (inactive)
IC50 [14]: > 100 µM (inactive)
Structure (SMILES): C/C(=N/NC(=O)c1ccccc1)c1ccc(OCC(=O)O)cc1
